Consider one molecule from article PMC4833932, “Cytotoxicity and cell cycle arrest induced by andrographolide lead to programmed cell death of MDA-MB-231 breast cancer cell line” (Journal of Biomedical Science, 2016).

Series [1] relates to Bcl-2. Kind of series: Western blot, protein expression in MDA-MB-231 cells. The format is cell-based, human. As to conditions: 30 μM, 48 h. As for the experimental part:
(§1) Cells from control regime and andrographolide treatment (30 μM, 48 h) were used for Western blot. After centrifugation, cell pellets were lysed in RIPA buffer containing protease and phosphatase inhibitors (Roche, Germany). Each cell lysate was used for protein assay with Bio-Rad protein assay kit (Bio-Rad, USA). A protein sample of 50 μg was electrophoresed in a 12 % SDS-PAGE. Proteins were electro-transferred from the gel onto a nitrocellulose membrane (Amersham Biosciences, UK). After incubating with blocking buffer containing 5 % nonfat milk for 1 h, the membranes were probed with the primary antibody specific for Bcl-xL (1:750 dilution), Bcl-2 (1:1000), Bax (1:1000), cytochrome c (1:800) and Apaf-1 (1:500) at 4 °C. Membrane was then washed thrice with TBST (Tris buffered saline having 0.1 % Tween-20, pH 7.5), exposed to horseradish peroxidase conjugated secondary antibody (1:2500) and was then kept at 25 °C for 1 h. The membrane was then finally washed thrice with TBST. The protein bands were visualized by incubating the membrane with diaminobenzidine/hydrogen peroxide (Sigma-Aldrich) for color reaction. β-Actin and COX IV were also detected as loading controls.

Series [2] has as its system Bcl-xL. The description is as above. It is filed as cell-based, human. As to conditions: 30 μM, 48 h. As for the experimental part: as §1
The subject of series [3] is Apaf-1. Described as above. The format is cell-based, human. As to conditions: 30 μM, 48 h. As for the experimental part:
as §1

For series [4], the system named is Bax. The series is described as above. As to conditions: 30 μM, 48 h. It is filed as cell-based, human. The method, then:
as §1

Series [5] relates to caspase-9. Kind of series: Caspase activity assay (fluorometric, LEHD-AFC) in MDA-MB-231 cells. As to conditions: 0-60 μM, 24 h. The format is cell-based, human. As for the experimental part: (§2) MDA-MB-231 cells (1 × 10^5 cells per ml) were incubated with different concentrations of andrographolide (0, 15, 30, 45 and 60 μM) for 24 h and then centrifuged to detect caspase-3 and caspase-9 activation using caspase fluoremetric protease assay kit following manufacturer’s instructions. Briefly, cells were lysed in RIPA buffer supplemented with protease inhibitor cocktail and 10 μl lysate were diluted with 10 μl substrate buffer (1:1) containing 100 μM each of fluorogenic substrate, DEVD-AFC and LEHD-AFC for caspase-3 and caspase-9 respectively, and was then incubated for 90 min at 37 °C. Reactions were stopped using 0.2 mM sodium phosphate buffer (pH 7.5) and fluorescence was quantified by a spectrofluorometer (excitation, 405 nm; emission, 505 nm). Experiment was also performed using MCF-7 cells.

The subject of series [6] is MDA-MB-231 cells. Kind of series: Cell proliferation assay (trypan blue). It is filed as cell-based, human. As to conditions: 30 μM, 48 h. As for the experimental part: MDA-MB-231 cells harvested from exponential growth phase were seeded at a density of 1 × 10^4/well in a 24-well culture plate. After 24 h, the cells were treated with varying concentrations of andrographolide (15, 30, 45 and 60 μM) or DMSO (0.1 %, vehicle control) for 12, 24, 36 and 48 h. After treatment, cells were harvested by trypsinization, stained with 0.4 % trypan blue and counted in a hemocytometer. Cell proliferation index PI, was calculated as PI = Ct/C0; where Ct = cell count at time t and C0 = cell count at the time of treatment.

Series [7] deals with MDA-MB-231 cells. The series is described as follows: Cell cycle analysis by flow cytometry (PI). The format is cell-based, human. As to conditions: 30 μM. The method, then:
In order to study the stages of the cell cycle affected by andrographolide, flow cytometry analysis of cell cycle was carried out. Cells were seeded in a 6-well tissue culture plate at an initial density of 2.5 × 10^5 cells per well in the presence of andrographolide (30 μM) or vehicle (DMSO) for 24, 36 and 48 h. The treatment medium and the attached cells were collected after trypsinisation and centrifugation at 1000 × g. Cells were then fixed with 70 % ethanol at 4 °C overnight. The resulted pellets were resuspended in PBS having 100 μg/ml RNAse A (Sigma-Aldrich, USA) and 50 μg/ml PI, and then kept in dark at 25 °C for 30 min. Cell cycle phase distribution were monitored on the BD FACSVerse™ (Becton Dickinson, USA) and analyzed by using FACSuite™ software. A total of 10,000 events were recorded.
A general note: Flow cytometry measures light scatter and fluorescence of single cells or particles in a stream.

Series [8] deals with cytochrome c. The series is described as follows: Western blot of cytosolic and mitochondrial fractions of MDA-MB-231 cells. The format is cell-based, human. As to conditions: 30 μM, 48 h. As for the experimental part:
Cells were treated with andrographolide (30 μM) for 48 h and mitochondrial as well as cytosolic fractions were obtained with a mitochondria isolation kit (Pierce, Rockford, USA). The mitochondrial pellet was re-suspended in sample buffer for SDS-gel electrophoresis and analyzed by Western blot using cytochrome c antibody. COX IV and β-actin were used as loading controls for the mitochondrial fraction and cytosolic fraction respectively. Cytosolic fractions were also Western blotted for studying cytochrome c expression.
Cells from control regime and andrographolide treatment (30 μM, 48 h) were used for Western blot. After centrifugation, cell pellets were lysed in RIPA buffer containing protease and phosphatase inhibitors (Roche, Germany). Each cell lysate was used for protein assay with Bio-Rad protein assay kit (Bio-Rad, USA). A protein sample of 50 μg was electrophoresed in a 12 % SDS-PAGE. Proteins were electro-transferred from the gel onto a nitrocellulose membrane (Amersham Biosciences, UK). […] The protein bands were visualized by incubating the membrane with diaminobenzidine/hydrogen peroxide (Sigma-Aldrich) for color reaction. β-Actin and COX IV were also detected as loading controls.
Background: Immunoblotting shows a protein as a band on a membrane.

Series [9] relates to caspase-9. The series is described as follows: Caspase activity assay in MCF-7 cells. The format is cell-based, human. As to conditions: MCF-7, 0-80 μM, 24 h. The method, then:
as §2

In series [10] the test system is MDA-MB-231 cells. The series is described as follows: Mitochondrial membrane potential (Rhodamine 123). As to conditions: 15-60 μM, 24 and 48 h. It is filed as cell-based, human. As for the experimental part: The loss of mitochondrial membrane potential (∆ψm) (MMP) is a primary event leading to phosphatidyl serine externalization, which corresponds with the activation of caspase. MMP was quantified by the incorporation of a fluorescent dye Rhodamine 123 [25]. Cells (1 × 10^4 per well) were incubated with different concentrations (15, 30, 45 or 60 μM) of andrographolide in the absence or presence of NAC for 24 and 48 h. Positive control was obtained with a mitochondrial uncoupling agent, carbonyl cyanide m-chloro-phenylhydrazone (CCCP; 20 μM) for 30 min. The treated cells were washed twice with chilled PBS before incubation with Rhodamine 123 (5 μg/ml) and kept at 37 °C for 15 min. The fluorescence intensity was detected using an emission filter of 535 nm. Same experiment was also performed using MCF-7 cells.

Series [11] relates to male mice. Details: method as in PMID 2228074. As to conditions: intraperitoneal route; cited from earlier work.

For the molecule `C=C1CC[C@@H]2[C@](C)(CO)[C@H](O)CC[C@@]2(C)[C@@H]1C/C=C1/C(=O)OC[C@H]1O` [andrographolide], the “Bcl-2 expression, down regulated” value in series [1] is reported as 1.96 ± 0.14 fold. The “Bcl-xL expression, down-regulated compared to control” value in series [2] was 1.47 ± 0.06 fold. For the same molecule, in series [3], the “Apaf-1 expression, increase” value was 1.49 ± 0.17 fold. The “Bax expression, up-regulated” value in series [4] is 2.39 ± 0.45 fold. In [5], the “activation of caspase-9” value was “gradual dose-dependent activation”. Also, in series [6], the cell death is given as ~ 50%. The “decrease in the cell number at the G1/G0 phase over the control” value is listed as 24.75 ± 0.5% in series [7] (24 h), 28.86 ± 0.7% in series [7] (36 h) and 33.53 ± 1.1% in [7] (48 h). Besides, the “increase in S population over the untreated control” value in series [7] (24 h) is on record as 9.91 ± 0.3%; in series [7] (36 h), 14.21 ± 0.2%. Besides, the “cytosolic cytochrome c expression, increase” value in series [8] (cytosolic fraction) is 7.13 ± 1.17 fold. Moreover, in series [8] (mitochondrial fraction), the “cytochrome c in the mitochondrial fraction, decrease” value turned out to be 1.92 ± 0.05 fold. Moreover, in series [9], the “caspase-9 (initiator caspase) activation” value is listed as “activation in a dose-dependent manner”. The MMP level entry in series [10] was “significant (P < 0.01) drop of MMP level”. Besides, the median lethal dose (LD50) in [11] was 11460 mg/kg.

One may read the LD50 as the dose expected to kill half of the subjects tested.
